Where a name gives a salt, the structure may show the parent alone.
Legend:
[1] = biological target: T1, horseradish peroxidase (HRP) tagged delF508-CFTR (Homo sapiens, UniProt P13569, DEL508-508); test: Measurement of delF508-CFTR-HRP surface expression in CFBE41o- cells; format: cell-based; conditions: delF508-CFTR-HRP surface expression, CFBE41o- cells; for Emax: read-out: DelF508-CFTR-HRP Amax %; for EC50: read-out: DelF508-CFTR-HRP EC50;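 as to DelF508-CFTR-HRP Amax %: percent efficacy relative to reference corrector lumacaftor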
T1 construct: expressed in transfected cells
Outline: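 Surface-trafficked delF508-CFTR detected via extracellular HRP tag, read as luminescence from a membrane-impermeant substrate in CFBE41o- cells. Cells pre-induced 48h with 500 ng/mL doxycycline, then exposed 24h at 37° C to a 10-point, 3-fold dilution series from 10 μM (DMSO ≤0.5%). Triplicate dose-responses fitted logistically for EC50 after per-plate normalization; fold change versus reference compound.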

delF508-CFTR = biological target: T2, delF508-CFTR (Homo sapiens, UniProt P13569, DEL508-508); test: Measurement of delF508-CFTR functional activity in primary human bronchial epithelial cells (HBECs) using Multi-Transepithelial Clamp Circuit (MTECC-24) assay; format: cell-based; conditions: primary CF HBECs; for MTECC24 CFHBEC- Amax %: test compound added 24h before assay plus potentiator, relative to reference combination (2 μM corrector + 0.5 μM potentiator); for EC50: test compound added 24h before assay, in the presence of potentiator, mean of at least two replicates, read-out: MTECC24 CFHBEC- EC50
T2 construct: functional activity of the CFTR channel (Chloride ion transport) in patient derived primary human bronchial epithelial cells; host or cells: patient-derived primary human bronchial epithelial cells (delF508-CFTR)
Outline: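 Compound tested as 10-point, 1-in-3 concentration response (0.1% or 0.2% DMSO), 24 h basolateral pre-incubation, then re-added to both sides. MTECC-24 measured Ieq in ALI-differentiated primary delF508 bronchial cells after amiloride, forskolin activation, potentiator and INH-172 block; data normalized to DMSO baseline, EC50 fitted.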

T2 sequence (P13569 with tags, fused parts or gaps DEL508-508): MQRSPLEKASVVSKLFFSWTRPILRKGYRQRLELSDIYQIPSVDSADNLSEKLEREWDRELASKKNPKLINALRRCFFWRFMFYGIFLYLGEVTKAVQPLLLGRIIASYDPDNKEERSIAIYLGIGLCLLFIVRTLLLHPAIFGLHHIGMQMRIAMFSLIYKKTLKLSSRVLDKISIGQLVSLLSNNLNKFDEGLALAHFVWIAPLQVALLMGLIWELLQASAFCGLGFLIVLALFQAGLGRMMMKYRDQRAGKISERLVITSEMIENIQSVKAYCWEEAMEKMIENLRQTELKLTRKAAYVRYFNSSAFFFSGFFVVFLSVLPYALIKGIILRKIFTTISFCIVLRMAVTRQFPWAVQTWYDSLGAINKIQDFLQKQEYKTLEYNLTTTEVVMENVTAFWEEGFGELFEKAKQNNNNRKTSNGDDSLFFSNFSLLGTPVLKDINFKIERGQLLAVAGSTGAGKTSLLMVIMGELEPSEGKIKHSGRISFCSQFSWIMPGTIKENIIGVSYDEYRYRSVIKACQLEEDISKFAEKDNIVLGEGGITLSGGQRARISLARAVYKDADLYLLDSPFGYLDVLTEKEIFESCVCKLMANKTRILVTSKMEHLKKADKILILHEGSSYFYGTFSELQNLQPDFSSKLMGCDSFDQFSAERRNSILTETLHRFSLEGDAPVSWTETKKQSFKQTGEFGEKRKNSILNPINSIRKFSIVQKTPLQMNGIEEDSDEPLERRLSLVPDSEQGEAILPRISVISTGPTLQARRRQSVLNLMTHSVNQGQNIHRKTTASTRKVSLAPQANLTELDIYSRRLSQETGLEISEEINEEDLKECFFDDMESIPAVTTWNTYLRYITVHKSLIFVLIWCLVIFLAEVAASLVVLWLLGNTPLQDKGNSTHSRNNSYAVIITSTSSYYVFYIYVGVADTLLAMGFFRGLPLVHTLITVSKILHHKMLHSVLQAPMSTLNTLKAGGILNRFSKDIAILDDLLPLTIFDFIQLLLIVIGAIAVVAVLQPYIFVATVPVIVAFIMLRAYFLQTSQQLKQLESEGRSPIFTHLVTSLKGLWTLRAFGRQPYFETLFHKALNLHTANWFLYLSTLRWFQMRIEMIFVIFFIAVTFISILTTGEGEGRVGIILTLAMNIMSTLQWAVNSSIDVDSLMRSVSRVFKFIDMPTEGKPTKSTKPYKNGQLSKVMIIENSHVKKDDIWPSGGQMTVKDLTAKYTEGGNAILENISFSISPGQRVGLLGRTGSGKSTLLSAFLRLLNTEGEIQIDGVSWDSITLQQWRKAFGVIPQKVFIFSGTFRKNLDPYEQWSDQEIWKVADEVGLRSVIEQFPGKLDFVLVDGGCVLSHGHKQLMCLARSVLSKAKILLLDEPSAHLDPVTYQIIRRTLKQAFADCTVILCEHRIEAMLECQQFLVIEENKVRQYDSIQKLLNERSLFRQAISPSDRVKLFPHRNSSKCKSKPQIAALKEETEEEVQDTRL
T1 sequence (P13569 with tags, fused parts or gaps DEL508-508): as above

Compound | Emax [1] [%] | EC50 [1] [nM] | MTECC24 CFHBEC- Amax % (delF508-CFTR) [%] | EC50 (delF508-CFTR) [nM]
Cc1cccc(C)c1-c1nc(NS(=O)(=O)c2cccc(N3CCNC(=O)C3)n2)ccc1Cl [Example 131, N-(5-chloro-6-(2,6-dimethylphenyl)pyridin-2-yl)-6-(3-oxopiperazin-1-yl)pyridine-2-sulfonamide] | 729 | 2140 | 78.4 | 25
Cc1ccccc1-c1nc(NS(=O)(=O)c2ccc(C)c(N)n2)ccc1C(F)(F)F [Example 36, 6-amino-5-methyl-N-(6-(o-tolyl)-5-(trifluoromethyl)pyridin-2-yl)pyridine-2-sulfonamide] | 390 | 2100 | 67.6 | 25.9
Cc1ccccc1-c1nc(NS(=O)(=O)c2cccc(N[C@H]3COCC[C@H]3O)n2)ccc1C(F)(F)F (single isomer, unassigned) [Example 282] | – | 1880 | 69.6 | 2.4
Cc1c(F)cccc1-c1nc(NS(=O)(=O)c2cccc(N3CCC[C@@H](C(=O)O)C3)n2)ccc1C(F)(F)F [Example 358, (3R)-1-(6-{[6-(3-fluoro-2-methylphenyl)-5-(trifluoromethyl)pyridin-2-yl]sulfamoyl}pyridin-2-yl)piperidine-3-carboxylic Acid] | 869 | 2320 | 57.9 | 4.02
O=S(=O)(Nc1ccc(Cl)c(-c2cccc(F)c2Cl)n1)c1cccc(N2CC(O)C2)n1 [Example 229, N-(5-chloro-6-(2-chloro-3-fluorophenyl)pyridin-2-yl)-6-(3-hydroxyazetidin-1-yl)pyridine-2-sulfonamide] | 341 | 4290 | 69.0 | 53.3
Cc1ccc(F)cc1-c1nc(NS(=O)(=O)c2cccc(N3CCN[C@@H](C)C3)n2)ccc1C(F)(F)F [Example 177, (S)—N-(6-(5-fluoro-2-methylphenyl)-5-(trifluoromethyl)pyridin-2-yl)-6-(3-methylpiperazin-1-yl)pyridine-2-sulfonamide Hydrochloride] | 447 | 2810 | 79.7 | 232
O=S(=O)(Nc1ccc(C(F)(F)F)c(-c2ccc(F)cc2Cl)n1)c1cccc(N2CC(O)C2)n1 [Example 225, N-(6-(2-chloro-4-fluorophenyl)-5-(trifluoromethyl)pyridin-2-yl)-6-(3-hydroxyazetidin-1-yl)pyridine-2-sulfonamide] | 361 | 2740 | 87.7 | 17.6
COc1ccc(F)cc1-c1nc(NS(=O)(=O)c2cccc(N)n2)ccc1Cl [Example 62, 6-amino-N-(5-chloro-6-(5-fluoro-2-methoxyphenyl)pyridin-2-yl)pyridine-2-sulfonamide] | 240 | 1730 | 46.1 | 51.2
Cc1ccc(F)cc1-c1nc(NS(=O)(=O)c2ccnc(N3CCOC[C@H]3C)c2)ccc1C(F)(F)F [Example 321, (R)—N-(6-(5-fluoro-2-methylphenyl)-5-(trifluoromethyl)pyridin-2-yl)-2-(3-methylmorpholino)pyridine-4-sulfonamide] | 413 | 1720 | 49.1 | 18.3
Cc1ccccc1-c1nc(NS(=O)(=O)c2cccc(N3CCN(C(N)=O)CC3)n2)ccc1C(F)(F)F [Example 184, 4-(6-(N-(6-(o-tolyl)-5-(trifluoromethyl)pyridin-2-yl)sulfamoyl)pyridin-2-yl)piperazine-1-carboxamide] | 149 | 835 | 69.2 | 53.5
Cc1ccccc1-c1nc(NS(=O)(=O)c2cccc(N[C@@H]3CCCNC3)n2)ccc1C(F)(F)F [Example 104, (R)-6-(piperidin-3-ylamino)-N-(6-(o-tolyl)-5-(trifluoromethyl)pyridin-2-yl)pyridine-2-sulfonamide Hydrochloride] | – | 2140 | 73.4 | 24.5
CC1(C(=O)O)CCN(c2cccc(S(=O)(=O)Nc3ccc(Cl)c(-c4cccc(F)c4Cl)n3)n2)CC1 [Example 245, 1-(6-(N-(5-chloro-6-(2-chloro-3-fluorophenyl)pyridin-2-yl)sulfamoyl)pyridin-2-yl)-4-methylpiperidine-4-carboxylic Acid] | 246 | 3440 | 48.0 | 43.1
Cc1ccc(F)cc1-c1nc(NS(=O)(=O)c2cccc(N3CCC[C@@H](C(=O)O)C3)n2)ccc1C(F)(F)F [Example 357, (3R)-1-(6-{[6-(5-fluoro-2-methylphenyl)-5-(trifluoromethyl)pyridin-2-yl]sulfamoyl}pyridin-2-yl)piperidine-3-carboxylic Acid] | – | 2060 | 70.6 | 38.5
COc1ccc(F)cc1-c1nc(NS(=O)(=O)c2cccc(N3CC(O)C3)n2)ccc1C(F)(F)F [Example 209, N-(6-(5-fluoro-2-methoxyphenyl)-5-(trifluoromethyl)pyridin-2-yl)-6-(3-hydroxyazetidin-1-yl)pyridine-2-sulfonamide] | 231 | 2700 | 95.6 | 139

Further compounds by falling EC50 [1], results first:

Emax [1] [%] | EC50 [1] [nM] | MTECC24 CFHBEC- Amax % (delF508-CFTR) [%] | EC50 (delF508-CFTR) [nM] | Compound
577 | 3280 | 54.3 | 136 | Cc1ccccc1-c1nc(NS(=O)(=O)c2cccc(N3CCC[C@@H](N)C3)n2)ccc1C(F)(F)F [Example 102, (R)-6-(3-aminopiperidin-1-yl)-N-(6-(o-tolyl)-5-(trifluoromethyl)pyridin-2-yl)pyridine-2-sulfonamide Hydrochloride]
298 | 2980 | 80.9 | 23.3 | Cc1ccccc1-c1nc(NS(=O)(=O)c2cccc(N3C[C@@H]4C[C@H]3CN4)n2)ccc1C(F)(F)F [Example 203, 6-((1S,4S)-2,5-diazabicyclo[2.2.1]heptan-2-yl)-N-(6-(o-tolyl)-5-(trifluoromethyl)pyridin-2-yl)pyridine-2-sulfonamide hydrochloride]
468 | 2920 | 63.2 | 20.3 | CC1(C(=O)O)CCN(c2cccc(S(=O)(=O)Nc3ccc(C(F)(F)F)c(-c4cccc(F)c4Cl)n3)n2)CC1 [Example 242, 1-(6-(N-(6-(2-chloro-3-fluorophenyl)-5-(trifluoromethyl)pyridin-2-yl)sulfamoyl)pyridin-2-yl)-4-methylpiperidine-4-carboxylic Acid]
312 | 2630 | 81.3 | 44.3 | Cc1ccc(C#N)cc1-c1nc(NS(=O)(=O)c2cccc(N3CC(C)(O)C3)n2)ccc1Cl [Example 305, N-(5-chloro-6-(5-cyano-2-methylphenyl)pyridin-2-yl)-6-(3-hydroxy-3-methylazetidin-1-yl)pyridine-2-sulfonamide]
– | 2080 | 51.9 | 11.3 | Cc1ccc(F)cc1-c1nc(NS(=O)(=O)c2cccc(N3CCCC(C)(C(=O)O)C3)n2)ccc1C(F)(F)F (centres unmarked) [Example 361, 1-(6-{[6-(5-fluoro-2-methylphenyl)-5-(trifluoromethyl)pyridin-2-yl]sulfamoyl}pyridin-2-yl)-3-methylpiperidine-3-carboxylic Acid]
590 | 1960 | 78.6 | 22 | Cc1ccccc1-c1nc(NS(=O)(=O)c2cccc(O[C@@H]3COCC3(C)O)n2)ccc1C(F)(F)F (mixture of isomers) [Example 293, rac-6-{[(3RR,4SR)-4-hydroxy-4-methyloxolan-3-yl]oxy}-N-[6-(2-methylphenyl)-5-(trifluoromethyl)pyridin-2-yl]pyridine-2-sulfonamide]
– | 1760 | 71.6 | 8.6 | Cc1cccc(C)c1-c1nc(NS(=O)(=O)c2cccc(N3CC(O)(C4CC4)C3)n2)ccc1Cl [Example 211, N-(5-chloro-6-(2,6-dimethylphenyl)pyridin-2-yl)-6-(3-cyclopropyl-3-hydroxyazetidin-1-yl)pyridine-2-sulfonamide]
– | 1520 | 79.6 | 6.7 | CCOC(=O)C1(C)CCN(c2cccc(S(=O)(=O)Nc3ccc(Cl)c(-c4c(C)cccc4C)n3)n2)CC1 [Example 249, ethyl 1-(6-(N-(5-chloro-6-(2,6-dimethylphenyl)pyridin-2-yl)sulfamoyl)pyridin-2-yl)-4-methylpiperidine-4-carboxylate]
499 | 1380 | 63.9 | 4.9 | O=S(=O)(Nc1ccc(C(F)(F)F)c(-c2ccccc2C(F)(F)F)n1)c1cccc(N2CC(O)C2)n1 [Example 224, 6-(3-hydroxyazetidin-1-yl)-N-(5-(trifluoromethyl)-6-(2-(trifluoromethyl)phenyl)pyridin-2-yl)pyridine-2-sulfonamide]
